Test results published in patent US5079247A, “N^1 -substituted benz(cd)indol-2-imine compounds as cardiovascular agents” (American Cyanamid Company, priority 1990, dated 1992).
Counter-ions that a name gives are not always drawn.

Assays:
[1] = test system: CaCl2-induced cardiac arrhythmias, fibrillation and cardiac death in mice; assay: Antiarrhythmic/antifibrillatory activity in anesthetized mice, calcium chloride challenge; assay type: in vivo, mice of the Swiss Webster Strain; settings: Mus musculus, iv, 0.25 h, calcium chloride 200 mg/kg i.v., read-out: CaCl2 Mice Surviving / Mice Tested (converted); for responders at 10 mg/kg: Dose = 10 mg/kg I.V., 15 minutes observation
Description: (§1) Intravenous administration of high doses of calcium or potassium chloride in animals produces cardiac arrhythmias, cardiac fibrillation and cardiac arrest. Any agent that can prevent these events is considered an antiarrhythmic/antifibrillatory agent. (Meth. and Find Exptl. Clin Pharmacal.2:223-252(1980); Pharmacol Ther. 24:401-433 (1984); Experimental Cardiac and Antiarrhythmic Drugs, L. Szekeres and Gy. J. Dapp, Akademiai Kiado Preso, Budapest, 9-448 (1971)).
(§2) The method employed is as follows: Male mice of the Swiss Webster Strain (Charles River, Wilmington, MA) weighing 25-35 g were anesthetized with ethyl carbamate (urethan) (1.5g/kg body weight i.p.). A 25-gauge needle attached to PE-20 tubing was inserted into a caudal vein for drug administration. The lead II ECG was recorded by needle electrodes placed subcutaneously in the limbs. All data were collected on a Gould Brush recorder. Animals were observed 5 minutes before drug administration. A 5, 15 or 30 minute period following drug administration was allowed before the bolus injection of calcium chloride, 200 mg/ kg i.v. or potassium chloride, 62.5 mg/kg i.v. Control mice received 4 ml/kg of 0.9% sodium chloride i.v. Mice were observed an additional 15 minutes for arrhythmias,fibrillation, survival or death. Any compound at a dose of less than 20 mg/kg i.v. in either test that protects from cardiac death 3 or more mice out of 6 mice, is considered active.

[2] = test system: spontaneously hypertensive rats of the Okamoto strain; assay: Hypotensive activity in spontaneously hypertensive rats (method of Chan and Poorvin); assay type: in vivo, rat; settings: by gavage, 100 mg/kg or less, two doses 24 hours apart; MABP at 28 hours after initial dose; average baseline MABP 160±1.5 mm of mercury
Procedure: The novel compounds of the present invention are active hypotensive agents and were tested for hypotensive activity by the method of P. S. Chan and D. Poorvin, Clinical and Experimental Hypertension, 1 (6), 817-830 (1979). Male, 16 week old, spontaneously hypertensive rats of the Okamoto strain, from Taconic Farms, Germantown, New York, having an average mean arterial blood pressure of 160±1.5 mm of mercury, were used in the test. One to 3 rats were used per test compound. […] A second identical dose of the test compound, without sodium chloride loading was given 24 hours later. At 28 hours after the initial dose the mean arterial blood pressure (MABP) was measured. The procedure was repeated in a second and third rat when necessary.

[3] = test system: KCl-induced cardiac arrhythmias, fibrillation and cardiac death in mice; assay: Antiarrhythmic/antifibrillatory activity in anesthetized mice, potassium chloride challenge; assay type: in vivo, mice of the Swiss Webster Strain; settings: Mus musculus, iv, 0.25 h, potassium chloride 62.5 mg/kg i.v.; for responders at 10 mg/kg: Dose = 10 mg/kg I.V., 15 minutes observation, read-out: KCl Mice Surviving / Mice Tested (converted)
Description: as §1, §2

[4] = target: T1, thromboxane synthetase enzyme (Rattus norvegicus, UniProt P49430); assay: Thromboxane synthetase enzyme inhibition (TXB2 formation in platelet suspension, RIA); assay type: cell-based, Okamoto-Aoki spontaneously hypertensive rats (SHR); settings: concentration 1 × 10^-4 M; SHR platelet suspension, 10 minutes at 37° C.
T1 construct: The platelets were isolated by centrifuging the PRP for 10 minutes; from tissue; host or cells: washed platelets from arterial blood of Okamoto-Aoki spontaneously hypertensive rats (animals from Taconic Farms)
T1 sequence (P49430 1-533): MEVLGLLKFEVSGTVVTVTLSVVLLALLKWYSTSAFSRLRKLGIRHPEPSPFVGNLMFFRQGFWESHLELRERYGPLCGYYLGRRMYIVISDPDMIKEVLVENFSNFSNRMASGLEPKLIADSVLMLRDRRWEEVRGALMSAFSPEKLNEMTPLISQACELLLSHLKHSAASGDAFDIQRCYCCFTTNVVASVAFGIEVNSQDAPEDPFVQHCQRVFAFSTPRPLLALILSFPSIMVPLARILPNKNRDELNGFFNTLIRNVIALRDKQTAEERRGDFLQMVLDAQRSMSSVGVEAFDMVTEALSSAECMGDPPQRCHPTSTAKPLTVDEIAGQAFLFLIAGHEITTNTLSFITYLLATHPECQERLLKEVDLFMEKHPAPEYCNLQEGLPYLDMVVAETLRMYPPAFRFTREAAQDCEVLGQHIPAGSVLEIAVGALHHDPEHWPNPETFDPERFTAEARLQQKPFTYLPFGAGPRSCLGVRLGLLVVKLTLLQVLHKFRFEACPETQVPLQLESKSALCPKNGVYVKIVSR
Procedure: Under urethan anethesia, […] of arterial blood from Okamoto-Aoki spontaneously hypertensive rats (SHR) (Taconic Farms, Germantown, New York) between 19 and 24 weeks in age was collected in 1 ml of 3.2% sodium citrate in a polystyrene tube. The blood was diluted with 3 ml of cold saline and centrifuged at room temperature for 15 minutes at 460Xg. The platelet rich plasma (PRP) was separated. The platelets were isolated by centrifuging the PRP for 10 minutes at 1060Xg and were washed in 4 ml of cold oxygenated Krebs phosphate buffer, pH 7.4. The chilled platelets, recovered from centrifuging at 800Xg for 10 minutes, were resuspended in oxygenated Krebs phosphate buffer and diluted to contain 4.5-6.0×10^4 platelets/μl. The inhibition of thromboxane (TX) formation was studied by determining the concentration of thromboxane B2 (TXB2), the stable hydrolysis product of TXA2. Assay samples, prepared on ice, contained 200 μl platelet suspension, 50 μl saline, and 50 μl vehicle or drug under study at a concentration of 1×10^-4 M. The samples were incubated for 10 minutes at 37° C. in metabolic shaker. The reaction was terminated by immersing the tubes in an ice bath and adding 50 μl of 0.5M citric acid. The samples were centrifuged for 10 minutes in a refrigerated centrifuge and the supernatants thus obtained were decanted and stored at -20° C. The TXB2 content for each sample was determined by a direct radioimmunoassay (RIA) utilizing a TXB2 specific RIA kit purchased from New England Nuclear, Boston, Massachusetts and expressed as pg TXB2 formed minute^-1 sample^-1, from which the percent inhibition of TXB2 formation was calculated.

SMILES | responders at 10 mg/kg [1] | responders at 10 mg/kg [3] | inhibition at 100 µM [4] | further results
CN1C(=NCCCCc2cccnc2)c2cccc3cccc1c23 [Example 27] | 58.3% | 50% | 100% | Avg. MABP in mm Hg (No. of Rats) [2]: 107 mm Hg
c1ccc(CN2C(=NCCCn3ccnc3)c3cccc4cccc2c34)cc1 [Example 6, N-[1-(Phenylmethyl)benz[cd]indol-2(1H)-ylidene]-1H-imidazole-1-propanamine,(E)-2-butenedioate (1:2)] | – | – | 90% | –
CN1C(=NCCCn2ccnc2)c2cccc3c(CO)ccc1c23 [Example 21, 1,2-Dihydro-2-[[3-(1H-imidazol-1-yl)propyl]imino]-1-methylbenz[cd]indole-6-methanol, (E)-2-butanedioate (1:1)] | 43.8% | 83.3% | – | –
CCN(CC)CCN1C(=NCc2cccnc2)c2cccc3cccc1c23 [Example 25, N,N-Diethyl-2-[(3-pyridinylmethyl)imino]benz[cd]indol-1(2H)ethanamine, (E)-2-butenedioate (2:3)] | 16.7% | 50% | 91% | –
CN1C(=NCCCCn2ccnc2)c2cccc3cccc1c23 [Example 22, N-(1-Methylbenz[cd]indol-2(1H)-ylidene)-1H-imidazole-1-butanamine] | – | – | – | Avg. MABP in mm Hg (No. of Rats) [2]: 112 mm Hg
CCCCCCN1C(=NCCCn2ccnc2)c2cccc3cccc1c23 [Example 16, N-(1-Hexylbenz[cd]indol-2(1H)-ylidene)-1H-imidazole 1-propanamine, (E)-2-butenedioate (1:2)] | – | – | 94% | –
c1ccc(CN2C(=NCCCCc3cccnc3)c3cccc4cccc2c34)cc1 [Example 29, N-[1-(Phenylmethyl)benz[cd]indol-2(1H)-ylidene]-3-pyridinebutanamine, (E)-2 butenedioate (1:2)] | 33.3% | 66.7% | – | –
CCCCCCN1C(=NCCCCc2cccnc2)c2cccc3cccc1c23 [Example 33, N-(1-Hexylbenz[cd]indol-2(1H)-ylidene)-3-pyridinebutanamine, (E)-2-butenedioate (2:3)] | – | – | 93% | –
c1cncc(CCCCN=C2c3cccc4cccc(c34)N2Cc2cccnc2)c1 [Example 31, N-[1-(3-Pyridinylmethyl)benz[cd]indol 2(1H)-ylidene]-3-pyridinebutanamine, dihydrochloride] | – | – | 96% | Avg. MABP in mm Hg (No. of Rats) [2]: 119 mm Hg
c1ccc(C(c2ccccc2)N2C(=NCCCn3ccnc3)c3cccc4cccc2c34)cc1 [Example 7, N-[1 (Diphenylmethyl)benz[cd]indol-2(1H)-ylidene]-1H-imidazole-1 propanamine] | 16.7% | 83.3% | 75% | –
CCN(CC)CC(=O)Nc1c(C)cccc1C [Lidocaine, reference compound] | 83.3% | 50% | – | –
c1ccc(CN2C(=NCCCn3ccnc3)c3cccc4cccc2c34)cc1 [Example 5, N-[1-(Phenylmethyl)benz[cd]indol-2 (1H)-ylidene]-1H-imidazole-1-propanamine] | 83.3% | 83.3% | – | –
c1ccc(C(c2ccccc2)N2C(=NCCCCc3cccnc3)c3cccc4cccc2c34)cc1 [Example 30] | 16.7% | 83.3% | – | –
c1cc2c3c(cccc3c1)N(CCCN1C(=NCCCn3ccnc3)c3cccc4cccc1c34)C2=NCCCn1ccnc1 [Example 20, N,N'-[1,3-Propanediylbis(benz[cd]indol-1(2H)-ylidene)]bis-1H-imidazole-1-propanamine] | 66.7% | 0% | – | –
CN1C(=NCCCn2ccnc2)c2cccc3cccc1c23 [Example 18, N-[1-Methylbenz[cd]indol-2(1H)-ylidene]-1H-imidazole-1-propanamine, (E)-2-butenedioate (1:2)] | 0% | 66.7% | – | –
Cl.Cl.c1ccc(OCCCN2C(=NCCCn3ccnc3)c3cccc4cccc2c34)cc1 [Example 12, N-[1-(3-Phenoxypropyl)benz[cd]indol-2(1H)-ylidene]-1H-imidazole-1-propanamine, dihydrochloride] | – | – | 90% | Avg. MABP in mm Hg (No. of Rats) [2]: 122 mm Hg
CCN(CC)CCNC(=O)c1ccc(N)cc1 [Procainamide, reference compound] | – | – | – | responders at 5 mg/kg ([3]; 5 mg/kg i.v., read-out: KCl Mice Surviving / Mice Tested): 70%
COc1cccc(CN2C(=NCCCn3ccnc3)c3cccc4cccc2c34)c1 [Example 14, N-[1-[(3Methoxyphenyl)methyl]benz[cd]indol-2(1H)-ylidene]-1H-imidazole-1-propanamine] | 16.7% | 66.7% | – | Avg. MABP in mm Hg (No. of Rats) [2]: 104 mm Hg
N#CCCCCN1C(=NCCCn2ccnc2)c2cccc3cccc1c23 [Example 15, 2-[[3-(1H-Imidazol-1 yl)propyl]imino]benz[cd]indole-1(2H)-pentanenitrile] | 16.7% | 50% | 94% | –
C=C[C@H]1C[N@@]2CC[C@H]1C[C@@H]2[C@@H](O)c1ccnc2ccc(OC)cc12 [Quinidine, reference compound] | – | – | – | responders at 15 mg/kg ([1]; 15 mg/kg i.v.): 75%; responders at 15 mg/kg ([3]; 15 mg/kg i.v., read-out: KCl Mice Surviving / Mice Tested): 30%
c1ccc(CCCN2C(=NCCCn3ccnc3)c3cccc4cccc2c34)cc1 [Example 13, N-[1-(3-Phenylpropyl)benz[cd]indol-2(1H)-ylidene]-1H-imidazole-1-propanamine, (E)-2-butenedioate (1:2)] | – | – | 92% | –
CCN(CC)CCN1C(=NCCCn2ccnc2)c2cccc3cccc1c23 [Example 17, N,N-Diethyl-2-[[3-(1H-imidazol-1-yl)propyl]imino]benz[cd]indole-1(2H)-ethanamine, (E)-2butenedioate (1:3)] | 16.7% | 66.7% | – | –
